In patent US11512053B2, “Arginine methyltransferase inhibitors and uses thereof” (priority 2013, dated 2022):
Where a name gives a salt, the structure may show the parent alone. Read-outs that look alike come from different tables or passages of the source.

Assays:
[1] = target: full-length human PRMT1 isoform 1 (GST-tagged) (Homo sapiens, UniProt Q99873); test: PRMT1 Biochemical Assay (3H-SAM Flashplate, peptide substrate)
In short: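 Tritiated methyl transfer from 3H-SAM onto biotinylated peptide, captured on streptavidin Flashplates and counted. Baculovirus-expressed GST-PRMT1 and compound were preincubated 30 min at room temperature in Bicine buffer pH 7.6. Cold SAM at 300 uM final ended the reaction.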

[2] = tested on: mono-methyl arginine in RKO cells; test: RKO Methylation Assay, In Cell Western (ICW) for detection of mono-methyl arginine and DNA content; assay type: cell-based
In short: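 RKO cells were treated with compound for 72 hours at 37 °C, methanol-fixed and stained overnight at 4 °C with anti-mono-methyl arginine (1:200), with DRAQ5 for DNA. Odyssey 800/700 nm intensity ratio was normalized to DMSO and 20 μM reference-compound controls. EC30 from triplicate nine-point curves.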

[3] = single experiment or average of multiple experiments
[4] = Homo sapiens, RKO, 72 h, RKO cells, 72 hours compound incubation, mono-methyl arginine signal normalised to DNA content (DRAQ5), percent activation vs 20 μM reference compound, read-out: In Cell Western EC30
[5] = Homo sapiens, RKO, 72 h, RKO cells, 72 hours incubation, mono-methyl arginine signal normalised to DNA content, single experiment or average of multiple experiments, read-out: In Cell Western EC30

Sequence of full-length human PRMT1 isoform 1 (GST-tagged) (Q99873 with tags, fused parts or gaps): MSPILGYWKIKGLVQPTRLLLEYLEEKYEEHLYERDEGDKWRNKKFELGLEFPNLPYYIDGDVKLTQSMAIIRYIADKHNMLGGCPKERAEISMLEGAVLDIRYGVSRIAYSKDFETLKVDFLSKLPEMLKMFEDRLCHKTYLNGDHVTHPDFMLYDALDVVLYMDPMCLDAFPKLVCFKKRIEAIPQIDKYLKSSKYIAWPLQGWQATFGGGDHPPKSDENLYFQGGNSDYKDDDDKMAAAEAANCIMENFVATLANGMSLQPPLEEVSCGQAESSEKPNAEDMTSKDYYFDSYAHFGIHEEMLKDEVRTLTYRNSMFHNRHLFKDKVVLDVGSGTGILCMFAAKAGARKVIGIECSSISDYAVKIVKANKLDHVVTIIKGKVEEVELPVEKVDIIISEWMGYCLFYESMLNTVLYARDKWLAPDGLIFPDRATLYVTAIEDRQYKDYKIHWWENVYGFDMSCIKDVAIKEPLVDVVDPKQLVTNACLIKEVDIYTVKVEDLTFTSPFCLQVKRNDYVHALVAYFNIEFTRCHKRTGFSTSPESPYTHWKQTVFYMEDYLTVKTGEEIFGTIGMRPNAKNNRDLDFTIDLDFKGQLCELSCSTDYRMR

Structure (SMILES)	IC50 [1] [nM]	IC50 [1, 3] [nM]	EC30 [2, 4] [nM]	EC30 [2, 5] [nM]	In Cell Western EC30 ([2]; RKO cells, 72 hours compound incubation, mono-methyl arginine signal normalised to DNA content (DRAQ5), percent activation vs 20 μM reference compound)	EC30 ([2]; RKO cells, 72 hours incubation, mono-methyl arginine signal normalised to DNA content, single experiment or average of multiple experiments, read-out: In Cell Western EC30) [nM]	EC30 ([2]; Homo sapiens, RKO, 72 h, read-out: In Cell Western EC30, RKO cells, 72 hours compound incubation, mono-methyl arginine signal normalised to DNA content (DRAQ5), percent activation vs 20 μM reference compound) [nM]	EC30 ([2]; Homo sapiens, RKO, 72 h, read-out: In Cell Western EC30, RKO cells, 72 hours incubation, mono-methyl arginine signal normalised to DNA content, single experiment or average of multiple experiments) [nM]
CNCCN(C)Cc1c[nH]nc1C1CCC(C)(C)[C@H](C(=O)NCCOC)C1 (stereo partly drawn) [Compound 264]	< 100	78	–	–	–	–	–	–
CCN(C(=O)CC(C)C)[C@H]1CC[C@@H](c2n[nH]cc2CN(C)CCNC)CC1 [Compound 240]	< 100	6.1	< 3000	1180	–	–	–	–
CNCCN(C)Cc1c[nH]nc1C1CCC(C)(C)[C@H](C(=O)OC)C1 (stereo partly drawn) [Compound 256]	< 100	23.7	< 3000	316	–	–	–	–
CNCCN(C)Cc1cn(C)nc1[C@H]1CC[C@]2(CC1)CC(C)(C)CO2 [Compound 206, Methyl([1-methyl-3-[(5R,8S)-3,3-dimethyl-1-oxaspiro[4.5]decan-8-yl]-1H-pyrazol-4-yl]methyl)[2-(methylamino)ethyl]amine hydrochloride]	< 100	19.5	< 3000	76.5	–	–	–	–
CNCCN(C)Cc1c[nH]nc1[C@H]1CC[C@H](N(CCCOC)C(=O)CCC(C)C)CC1 [Compound 243]	< 100	32.4	–	–	–	–	–	–
CNCCN(C)Cc1n[nH]cc1[C@H]1CC[C@@]2(CC1)CC(C)(C)CO2 [Compound 200, Methyl[2-(methylamino)ethyl]([4-[(5S,8S)-3,3-dimethyl-1-oxaspiro[4.5]decan-8-yl]-1H-pyrazol-3-yl]methyl)amine trifluoroacetic acid salt]	< 100	–	< 3000	20.3	–	–	–	–
CNCCN(C)Cc1c[nH]nc1[C@H]1CC[C@H](N(CCOc2ccccc2)C(=O)CC(C)C)CC1 [Compound 223]	< 100	6.65	< 3000	275	–	–	–	–
CNCCN(C)Cc1c[nH]nc1[C@H]1CC[C@@H](N(CCOc2ccccc2)C(=O)CCCOC)CC1 [Compound 228]	< 100	69	–	–	–	–	–	–
CCN(C(=O)CCOc1ccccc1)[C@H]1CC[C@@H](c2n[nH]cc2CN(C)CCNC)CC1 [Compound 224]	< 100	9.27	< 3000	84.7	–	–	–	–
CNCCN(C)Cc1n[nH]cc1[C@H]1CC[C@H](C(=O)NCCC(C)C)CC1 [Compound 203]	< 100	28.4	< 3000	327	–	–	–	–
CNCCN(C)Cc1cn(C)nc1[C@H]1CC[C@@]2(CC1)CC(C)(C)CO2 [Compound 205, Methyl([1-methyl-3-[(5S,8S)-3,3-dimethyl-1-oxaspiro[4.5]decan-8-yl]-1H-pyrazol-4-yl]methyl)[2-(methylamino)ethyl]amine hydrochloride]	< 100	12.8	< 3000	14.4	–	–	–	–
CNCCN(C)Cc1c[nH]nc1[C@H]1CC[C@H](N(CC(C)C)C(=O)CC2CCOCC2)CC1 [Compound 193]	< 100	28.4	< 3000	1440	–	–	–	–
CCOC[C@@H]1C[C@H](COCC)C[C@H](c2n[nH]cc2CN(C)CCNC)C1 [Compound 189]	101 to 1000	108	3010 to 12000	6620	–	–	–	–
CNCCN(C)Cc1c[nH]nc1[C@H]1CC[C@H](N(CC(C)C)C(=O)CCCOC)CC1 [Compound 249]	< 100	24.2	–	–	A (“A” indicates an EC30 ≤ 3.00 μM)	658.5	–	–
CNCCN(C)Cc1c[nH]nc1[C@H]1CC[C@H](N(CC(C)C)C(=O)CCCOC)CC1 [Compound 248]	< 100	13.2	< 3000	1310	–	–	–	–
CCN(C(=O)CC(C)C)[C@H]1CC[C@H](c2n[nH]cc2CN(C)CCNC)CC1 [Compound 239]	< 100	6.55	< 3000	2150	–	–	–	–
CNCCN(C)Cc1c[nH]nc1C1CCC2(CCCC2)OC1 (stereo not drawn) [Compound 199]	< 100	16.8	< 3000	802	–	–	–	–
CNCCN(C)Cc1c[nH]nc1[C@H]1CC[C@H](N(CCC(C)C)C(=O)CCCOC)CC1 [Compound 238]	< 100	29.6	< 3000	2150	–	–	–	–
CCN(C(=O)CC1CCOCC1)[C@H]1CC[C@@H](c2n[nH]cc2CN(C)CCNC)CC1 [Compound 196]	101 to 1000	149	3010 to 12000	4890	–	–	–	–
CNCCN(C)Cc1cnn(C)c1[C@H]1CC[C@]2(CC1)CC(C)(C)CO2 [Compound 257]	< 100	29.8	< 3000	13.2	–	–	–	–
CNCCN(C)Cc1c[nH]nc1[C@H]1CC[C@@H](N(CCOc2ccccc2)C(=O)CC(C)C)CC1 [Compound 222]	< 100	43	< 3000	2610	–	–	–	–

Structure (SMILES)	IC50 [1] [nM]	IC50 [1, 3] [nM]	EC30 [2, 4] [nM]	EC30 [2, 5] [nM]	In Cell Western EC30 ([2]; RKO cells, 72 hours compound incubation, mono-methyl arginine signal normalised to DNA content (DRAQ5), percent activation vs 20 μM reference compound)	EC30 ([2]; RKO cells, 72 hours incubation, mono-methyl arginine signal normalised to DNA content, single experiment or average of multiple experiments, read-out: In Cell Western EC30) [nM]	EC30 ([2]; Homo sapiens, RKO, 72 h, read-out: In Cell Western EC30, RKO cells, 72 hours compound incubation, mono-methyl arginine signal normalised to DNA content (DRAQ5), percent activation vs 20 μM reference compound) [nM]	EC30 ([2]; Homo sapiens, RKO, 72 h, read-out: In Cell Western EC30, RKO cells, 72 hours incubation, mono-methyl arginine signal normalised to DNA content, single experiment or average of multiple experiments) [nM]
CCOC[C@H]1CC(c2n[nH]cc2CN(C)CCNC)C[C@H](COCC)C1 (stereo partly drawn) [Compound 188]	101 to 1000	275	–	–	–	–	–	–
CNCCN(C)Cc1c[nH]nc1[C@H]1CC[C@@H](N(CCOc2ccccc2)C(=O)CCOC)CC1 [Compound 218]	< 100	41.7	–	–	–	–	–	–
CNCCN(C)Cc1c[nH]nc1[C@H]1CC[C@H](N(CCCOC)C(=O)CCOc2ccccc2)CC1 [Compound 247]	< 100	11.1	< 3000	698	–	–	–	–
CCC(=O)N(CCOc1ccccc1)[C@H]1CC[C@@H](c2n[nH]cc2CN(C)CCNC)CC1 [Compound 220]	< 100	9.29	< 3000	219	–	–	–	–
CNCCN(C)Cc1c[nH]nc1[C@H]1CC[C@H](C(=O)NCCOc2ccccc2)CC1 [Compound 211]	< 100	8.28	< 3000	155	–	–	–	–
CNCCN(C)Cc1c[nH]nc1[C@H]1CC[C@@H](N(CCC(C)C)C(=O)CCCOC)CC1 [Compound 237]	< 100	42.2	< 3000	1440	–	–	–	–
CCN(C(=O)CCC(C)C)[C@H]1CC[C@@H](c2n[nH]cc2CN(C)CCNC)CC1 [Compound 251]	< 100	13.1	< 3000	1450	–	–	–	–
CNCCN(C)Cc1c[nH]nc1[C@H]1CC[C@@H](C(=O)N(C)CC(C)C)CC1 [Compound 215]	< 100	14.1	< 3000	164	–	–	–	–
CNCCN(C)Cc1c[nH]nc1C1CCC(F)(F)CC1 [Compound 216]	< 100	12.1	< 3000	111	–	–	–	–
CNCCN(C)Cc1c[nH]nc1[C@H]1CC[C@@H](N(CC(C)C)C(=O)CCOC)CC1 [Compound 233]	< 100	20.7	< 3000	1060	–	–	–	–
CNCCN(C)Cc1c[nH]nc1[C@H]1CC[C@H](N(CC2CCOCC2)C(=O)CC(C)C)CC1 [Compound 192]	101 to 1000	216	3010 to 12000	9250	–	–	–	–
CNCCN(C)Cc1c[nH]nc1[C@H]1CC[C@@H](O)CC1 [Compound 217, 4-[4-([methyl[2-(methylamino)ethyl]amino]methyl)-1H-pyrazol-3-yl]cyclohexan-1-ol trifluoroacetate]	< 100	30.2	–	–	–	–	< 3000	111
CNCCN(C)Cc1c[nH]nc1[C@H]1CC[C@@H](N(CCCOC)C(=O)CC(C)C)CC1 [Compound 242]	< 100	28.3	–	–	–	–	–	–
CNCCN(C)Cc1n[nH]cc1[C@H]1CC[C@]2(CC1)CC(C)(C)CO2 [Compound 201]	< 100	–	< 3000	155	–	–	–	–
CNCCN(C)Cc1c[nH]nc1C1CCC(C)(C)[C@@H](C(=O)NCCC(C)C)C1 (stereo partly drawn) [Compound 263, (1S)-2,2-dimethyl-5-[4-({methyl[2-(methylamino)ethyl]amino}methyl)-1H-pyrazol-3-yl]-N-(3-methylbutyl)cyclohexane-1-carboxamide]	< 100	19.2	–	–	–	–	–	–
CCN(C(=O)CCC(C)C)[C@H]1CC[C@H](c2n[nH]cc2CN(C)CCNC)CC1 [Compound 250]	< 100	24	–	–	–	–	–	–
CNCCN(C)Cc1c[nH]nc1C1CCC(C)(C)[C@H](C(=O)NCCCOC)C1 (stereo partly drawn) [Compound 265]	< 100	58.8	–	–	–	–	–	–
CNCCN(C)Cc1cnn(C)c1[C@H]1CC[C@@]2(CC1)CC(C)(C)CO2 [Compound 245, Methyl ([2-[methyl([1-methyl-5-[(5S,8S)-3,3-dimethyl-1-oxaspiro[4.5]decan-8-yl]-1H-pyrazol-4-yl]methyl)amino]ethyl])amine trifluoroacetic acid salt]	< 100	18.5	–	–	–	–	–	–
CNCCN(C)Cc1c[nH]nc1C1CCC(C)(C)[C@@H](C(=O)NCC(C)C)C1 (stereo partly drawn) [Compound 266]	< 100	19.3	–	–	–	–	–	–
CNCCN(C)Cc1c[nH]nc1C1C[C@H](C(=O)N(C)CC(C)C)C(C)(C)[C@H](C(=O)N(C)CC(C)C)C1 (stereo partly drawn) [Compound 267]	3010 to 10000	3500	–	–	–	–	–	–
